From patent US9884818B2, “Sulphamoylpyrrolamide derivatives and the use thereof as medicaments for the treatment of hepatitis B” (Janssen Sciences Ireland UC, priority 2013, dated 2018)

What was measured:
HBV = test: Anti-HBV activity, HepG2.117 inducibly HBV producing cell line (Tet-off), intracellular HBV DNA by realtime PCR; format: cell-based; settings: Hepatitis B virus, HepG2.117, 72 h, HepG2.117 cells, 3 days of treatment, intracellular HBV DNA; read-out: HepG2 117 EC50
[1] = Cytotoxicity in HepG2 cells, Resazurin viability assay; settings: human, HepG2 cells, HepG2 4 days CC50 (μM), incubated for 4 days, Resazurin assay

Row | SMILES | EC50 (HBV) [nM] | CC50 at 4 days [1] [µM]
1 | Cn1cc(S(=O)(=O)NC2(C)COC2)c(F)c1C(=O)Nc1ccc(F)c(Cl)c1 [Compound 108, N-(3-Chloro-4-fluorophenyl)-3-fluoro-1-methyl-4-[(3-methyloxetan-3-yl)sulfamoyl]-1H-pyrrole-2-carboxamide] | 10 | > 25
2 | Cn1cc(S(=O)(=O)NC2CCCC2)c(Cl)c1C(=O)Nc1ccc(F)c(C#N)c1 [Compound 307, 3-chloro-N-(3-cyano-4-fluoro-phenyl)-4-(cyclopentylsulfamoyl)-1-methyl-pyrrole-2-carboxamide] | 30 | > 25
3 | C[C@@H](NS(=O)(=O)c1cn(C)c(C(=O)Nc2ccc(F)cc2F)c1F)C(F)(F)F [Compound 312, N-(2,4-difluorophenyl)-3-fluoro-1-methyl-4-[[(1R)-2,2,2-trifluoro-1-methyl-ethyl]sulfamoyl]pyrrole-2-carboxamide] | 60 | > 25
4 | Cc1cc(NC(=O)c2c(Br)c(S(=O)(=O)N[C@H](C)C(F)(F)F)cn2C)ccc1F [Compound 308, 3-bromo-N-(4-fluoro-3-methyl-phenyl)-1-methyl-4-[[(1R)-2,2,2-trifluoro-1-methyl-ethyl]sulfamoyl]pyrrole-2-carboxamide] | 10 | > 25
5 | C[C@@H](NS(=O)(=O)c1c(F)c(C(=O)Nc2ccc(F)c(C#N)c2F)n(C)c1Br)C(F)(F)F [Compound 315, 5-bromo-N-(3-cyano-2,4-difluoro-phenyl)-3-fluoro-1-methyl-4-[[(1R)-2,2,2-trifluoro-1-methyl-ethyl]sulfamoyl]pyrrole-2-carboxamide] | 7 | > 25
6 | Cc1cc(NC(=O)c2cc(S(=O)(=O)NC(C)(C)C(=O)O)cn2C)ccc1F [Compound 61, 2-[[5-[(4-fluoro-3-methyl-phenyl)carbamoyl]-1-methyl-pyrrol-3-yl]-sulfonylamino]-2-methyl-propanoic acid] | > 1000 | > 25
7 | Cc1c(S(=O)(=O)N[C@H](C)C(F)(F)F)c(F)c(C(=O)Nc2ccc(F)c(C#N)c2)n1C [Compound 299, N-(3-cyano-4-fluoro-phenyl)-3-fluoro-1,5-dimethyl-4-[[(1R)-2,2,2-trifluoro-1-methyl-ethyl]sulfamoyl]pyrrole-2-carboxamide] | 9 | > 25
8 | C[C@@H](NS(=O)(=O)c1c(F)c(C(=O)Nc2ccc(F)c(C#N)c2)n(C)c1C1CC1)C(F)(F)F [Compound 304, N-(3-cyano-4-fluoro-phenyl)-5-cyclopropyl-3-fluoro-1-methyl-4-[[(1R)-2,2,2-trifluoro-1-methyl-ethyl]-sulfamoyl]-pyrrole-2-carboxamide] | 10 | > 25
9 | C[C@@H](NS(=O)(=O)c1c(Cl)c(C(=O)Nc2ccc(F)c(C#N)c2)n(C)c1Br)C(F)(F)F [Compound 300, 5-bromo-3-chloro-N-(3-cyano-4-fluoro-phenyl)-1-methyl-4-[[(1R)-2,2,2-trifluoro-1-methyl-ethyl]sulfamoyl]pyrrole-2-carboxamide] | 8 | 14.2
10 | C[C@@H](NS(=O)(=O)c1c(Cl)c(C(=O)Nc2ccc(F)c(C#N)c2)n(C)c1C1CC1)C(F)(F)F [Compound 302, 3-chloro-N-(3-cyano-4-fluoro-phenyl)-5-cyclopropyl-1-methyl-4-[[(1R)-2,2,2-trifluoro-1-methyl-ethyl]sulfamoyl]pyrrole-2-carboxamide] | 30 | > 25
11 | C[C@@H](NS(=O)(=O)c1c(F)c(C(=O)Nc2ccc(F)c(C#N)c2)n(C)c1Br)C(F)(F)F [Compound 301, 5-bromo-N-(3-cyano-4-fluoro-phenyl)-3-fluoro-1-methyl-4-[[(1R)-2,2,2-trifluoro-1-methyl-ethyl]sulfamoyl]pyrrole-2-carboxamide] | 7 | > 25
12 | CC[C@@H](NS(=O)(=O)c1cn(C)c(C(=O)Nc2ccc(F)c(C#N)c2)c1Cl)C(F)(F)F [Compound 290, 3-chloro-N-(3-cyano-4-fluoro-phenyl)-1-methyl-4-[[(1R)-1-(trifluoro-methyl)propyl]sulfamoyl]pyrrole-2-carboxamide] | 20 | > 25
13 | C[C@@H](NS(=O)(=O)c1cn(C)c(C(=O)Nc2ccc(F)cc2)c1F)C(F)(F)F [Compound 285, 3-fluoro-N-(4-fluorophenyl)-1-methyl-4-[[(1R)-2,2,2-trifluoro-1-methyl-ethyl]sulfamoyl]pyrrole-2-carboxamide] | 7 | > 25
14 | CC[C@H](NS(=O)(=O)c1cn(C)c(C(=O)Nc2ccc(F)c(C#N)c2)c1F)C(F)(F)F [Compound 284, N-(3-cyano-4-fluoro-phenyl)-3-fluoro-1-methyl-4-[[(1S)-1-(trifluoro-methyl)propyl]sulfamoyl]pyrrole-2-carboxamide] | 9 | > 25
15 | C[C@@H](NS(=O)(=O)c1cn(C)c(C(=O)Nc2ccc(F)c(C#N)c2)c1F)C(C)(F)F [Compound 317, N-(3-cyano-4-fluoro-phenyl)-4-[[(1R)-2,2-difluoro-1-methyl-propyl]sulfamoyl]-3-fluoro-1-methyl-pyrrole-2-carboxamide] | 6 | > 25
16 | C[C@@H](NS(=O)(=O)c1c(F)c(C(=O)Nc2ccc(F)c(C#N)c2F)n(C)c1Cl)C(F)(F)F [Compound 314, 5-chloro-N-(3-cyano-2,4-difluoro-phenyl)-3-fluoro-1-methyl-4-[[(1R)-2,2,2-trifluoro-1-methyl-ethyl]sulfamoyl]pyrrole-2-carboxamide] | 7 | > 25
17 | C=Cc1c(S(=O)(=O)N[C@H](C)C(F)(F)F)c(F)c(C(=O)Nc2ccc(F)c(C#N)c2)n1C [Compound 311, N-(3-cyano-4-fluoro-phenyl)-3-fluoro-1-methyl-4-[[(1R)-2,2,2-trifluoro-1-methyl-ethyl]sulfamoyl]-5-vinyl-pyrrole-2-carboxamide] | 60 | > 25
18 | C[C@@H](NS(=O)(=O)c1cn(C)c(C(=O)Nc2ccc(F)c(C(F)F)c2)c1F)C(F)(F)F [Compound 286, N-[3-(difluoromethyl)-4-fluoro-phenyl]-3-fluoro-1-methyl-4-[[(1R)-2,2,2-trifluoro-1-methyl-ethyl]sulfamoyl]pyrrole-2-carboxamide] | 5 | 21.9
19 | C[C@@H](NS(=O)(=O)c1cn(C)c(C(=O)Nc2ccc(F)c(C#N)c2)c1Br)C(F)(F)F [Compound 292, 3-bromo-N-(3-cyano-4-fluoro-phenyl)-1-methyl-4-[[(1R)-2,2,2-trifluoro-1-methyl-ethyl]sulfamoyl]pyrrole-2-carboxamide] | 30 | 15.5
20 | COCC(C)(NS(=O)(=O)c1cc(C(=O)Nc2cc(F)c(F)c(Cl)c2)n(C)c1)C(F)(F)F (stereo not drawn) [Compound 73, N-(3-chloro-4,5-difluoro-phenyl)-1-methyl-4-[[2,2,2-trifluoro-1-(methoxymethyl)-1-methyl-ethyl]sulfamoyl]pyrrole-2-carboxamide] | 100 | 14.1
21 | Cn1cc(S(=O)(=O)NC2(C(F)(F)F)CCC2)c(F)c1C(=O)Nc1ccc(F)c(C#N)c1 [Compound 319, N-(3-cyano-4-fluoro-phenyl)-3-fluoro-1-methyl-4-[[1-(trifluoromethyl)cyclobutyl]sulfamoyl]pyrrole-2-carboxamide] | < 4 | > 25
